# Read-outs that look alike come from different tables or passages of the source. {FAM} = fluorescein amidite label
# T1: MSUT2 ZF (Homo sapiens, UniProt Q6PJT7)
# T1 construct: Targeted construct consisted of the c-terminal end (dark blue and amino acids 601-736) of MSUT2; made in house; host or cells: E. coli BL21 (DE3)
# T1 sequence (Q6PJT7 601-736): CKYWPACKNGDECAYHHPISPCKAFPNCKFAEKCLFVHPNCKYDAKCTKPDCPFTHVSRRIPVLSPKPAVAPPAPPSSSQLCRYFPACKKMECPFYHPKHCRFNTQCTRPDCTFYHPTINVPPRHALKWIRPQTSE
# T2: PABPN1 (Homo sapiens, UniProt Q86U42)
# T2 construct: made in house; host or cells: E. coli BL21 (DE3)
# T2 sequence (Q86U42 1-306): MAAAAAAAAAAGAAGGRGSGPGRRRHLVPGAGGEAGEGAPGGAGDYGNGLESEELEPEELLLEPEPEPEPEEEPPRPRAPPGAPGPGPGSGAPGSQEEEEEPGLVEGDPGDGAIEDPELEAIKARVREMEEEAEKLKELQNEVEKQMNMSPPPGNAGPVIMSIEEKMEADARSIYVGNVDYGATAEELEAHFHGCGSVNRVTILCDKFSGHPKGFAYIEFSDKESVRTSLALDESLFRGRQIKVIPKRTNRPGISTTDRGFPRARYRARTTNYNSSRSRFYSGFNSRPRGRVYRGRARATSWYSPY
# T3: GST-MSUT2 (Homo sapiens, UniProt Q6PJT7)
# T3 construct: Targeted construct consisted of the c-terminal end (dark blue and amino acids 601-736) of MSUT2; made in house; host or cells: E. coli BL21 (DE3)
# T3 sequence (Q6PJT7 601-736): T1 sequence (Q6PJT7 601-736)
# T4: MSUT2 (Homo sapiens, UniProt Q6PJT7)
# T4 sequence (Q6PJT7 1-736): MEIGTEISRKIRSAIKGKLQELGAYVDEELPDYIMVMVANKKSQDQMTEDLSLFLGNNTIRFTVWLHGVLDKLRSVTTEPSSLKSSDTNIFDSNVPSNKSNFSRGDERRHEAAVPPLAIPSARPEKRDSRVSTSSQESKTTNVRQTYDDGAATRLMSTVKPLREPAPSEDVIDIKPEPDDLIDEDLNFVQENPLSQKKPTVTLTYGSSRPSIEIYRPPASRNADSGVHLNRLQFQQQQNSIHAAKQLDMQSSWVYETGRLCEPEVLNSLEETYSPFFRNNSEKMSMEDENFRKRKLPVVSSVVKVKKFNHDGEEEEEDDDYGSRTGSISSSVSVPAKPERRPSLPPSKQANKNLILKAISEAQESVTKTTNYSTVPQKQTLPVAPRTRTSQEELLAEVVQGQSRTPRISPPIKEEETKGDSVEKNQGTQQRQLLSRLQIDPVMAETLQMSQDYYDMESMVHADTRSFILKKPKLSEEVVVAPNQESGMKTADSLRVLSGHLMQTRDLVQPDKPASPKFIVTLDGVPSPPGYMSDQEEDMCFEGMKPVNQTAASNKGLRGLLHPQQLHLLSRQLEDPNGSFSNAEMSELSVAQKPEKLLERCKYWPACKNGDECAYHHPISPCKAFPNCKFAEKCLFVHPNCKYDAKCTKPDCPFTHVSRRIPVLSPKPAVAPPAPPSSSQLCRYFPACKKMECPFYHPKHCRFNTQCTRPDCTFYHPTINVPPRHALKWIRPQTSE
# T5: PABPN1 (UniProt Q86U42 Q86U42:1-306)
# T5 sequence: T2 sequence (Q86U42 1-306)
# T6: MSUT2 ZF (ZC3H14 C-terminal CCCH zinc finger domain) (UniProt Q6PJT7 Q6PJT7:601-736)
# T6 sequence: T1 sequence (Q6PJT7 601-736)
# How the values were obtained:
# [1] = target: T1, MSUT2 ZF; test: Fluorescence polarization assay of FAM-poly(A) RNA:MSUT2 ZF binding; settings: for Ki (nm) for MSUT2 / Ki: calculated by Cheng Prusof equation Ki=(IC50)/[(L/Kd)+1], FP dose response; for Ki: read-out: Ki (nm) for MSUT2
# Description: Fluorescence Polarization Assay. […] 2 μL of compound was transferred for a final concentration of 10 μM. […] Fluorescence polarization was calculated by first subtracting background from a buffer-only control well and then using the equation
# Results and Discussion. A high-throughput fluorescence polarization assay for inhibition of poly(A):MSUT2 RNA interaction. […] In order to screen potential inhibitors of MSUT2 RBP and RNA by FP, fluorescent FAM (fluorescein amidite)-labeled poly(A)15 RNA (FAM-RNA) and recombinant MSUT2 ZF (zinc finger) protein expressing constructs were generated (FIG. 7a). […] Inhibition of the interaction results in unbound FAM-RNA tumbling at a relatively rapid rate and emitting non-polarized light (FIG. 7b).
# (§1) To determine the concentrations of both MSUT2 ZF protein and FAM-RNA probe useful in the methods described herein, a two dimensional titration of protein and RNA concentrations in 96-well format was performed. […] Next, the binding constant between MSUT2 ZF and FAM-RNA was determined by holding FAM-RNA constant at 10 nM while increasing MSUT2 ZF concentration.
# (§2) Identification and validation of MSUT2 inhibitory compounds from NIHCC library. […] IC50 of each of the previous 8 compounds was determined for PABPN1 using fluorescence polarization (FIG. 11), and a specificity ratio determined (Table 3). An Alpha Screen (AS) assay was developed as an orthogonal screen. Briefly, in this screen, biotinylated RNA binds streptavidin-coated donor beads, while GST-MSUT2 ZF binds glutathione-coated acceptor beads. When donor beads and acceptor beads are brought within close proximity of one another, laser excitation leads to fluorophore emission of the acceptor bead via excited singlet oxygen activating chemiluminescers in the acceptor beads. […] Toxicity of these compounds in a HEK cell model was determined using a standard Promega Cell Titer Glo assay.
# (§3) Fluorescence Polarization Assay. […] of stock compound was transferred yielding 10 μM final concentration. […] Fluorescence polarization was calculated by first subtracting background from a buffer-only control well and then using the equation
# [2] = test system: HEK-293 cells; test: Cell viability, Promega Cell Titer Glo
# Description: Cell culture and cytotoxicity screen. […] Cell viability was assessed as using Promega Cell Titer Glo (Promega G7570) per manufacturer protocol. Briefly, HEK-293 cells were grown to 70% confluence in a 96 well plate were treated with indicated concentrations of compounds and incubated for 72 hours at 37° C. Plates were read for luminescence on Perkin Elmer Enspire Alpha.
# Cell viability was assessed. Briefly, HEK-293 cells grown to 70% confluence in a 96 well dish were treated with varying concentrations of compound (final concentration of 2% DMSO) and incubated for 72 hours. Next, Promega Cell Titer Glo assay was used to assess viability per manufacturer instructions (Promega G7570).
# [3] = target: T2, PABPN1; test: PABPN1 fluorescence polarization counter screen; assay type: binding; settings: for IC50 / IC50PABPN1: fluorescence polarization counter screen; for IC50: unit inferred, read-out: IC50PABPN1; for IC50PABPN1: unit not given; for PABPN1/MSUT2 specificity ratio: ratio of FP IC50s
# Description: A drug repurposing strategy: screening of the NIH Clinical Collection compound library. […] The plan to find suitable lead compounds for drug repurposing began with a screen of the NIH Clinical Collection (NIHCC) library. The NIHCC consists of a diverse array of 700 compounds with historical pharmacological use and well-studied safety profiles. […] An orthogonal poly(A):MSUT2 binding assay allowed the ruling out of assay interference while selectivity against MSUT2 over PABPN1 was determined by a parallel FP assay with PABPN1 as the RBP. […] Thus, the goal was to eliminate compounds interfering with both PABN1 and MSUT2 and focus on compounds truly specific for poly(A):MSUT2 binding.
# as §2, §3
# [4] = target: T3, GST-MSUT2; test: Alpha Screen assay of biotinylated poly(A) RNA:GST-MSUT2 binding; settings: orthogonal dose-response validation
# Description: Alpha Screen Assay. Samples were set up in 384 well Perkin Elmer white opaque-bottom plates (PE06). A total reaction volume of […] was plated in 384 format using a CyBio Well Vario (6 μL of donor beads (10 μg/mL), 3 μL biotinylated RNA (250 nM), 3 μL GST-MSUT2 protein (250 nM) per well). 50 nL of compounds were transferred to wells via CyBio Vario equipped with Pin Tool. This mixture was incubated at room temperature for 30 minutes away from light. Next 3 μL of acceptor beads (1.25 μg/mL) was added. Plates were incubated at room temperature away from light for 60 minutes and subsequently read on a Perkin Elmer EnVision multimode microplate reader equipped with stackers using a standard 384-well Alpha Assay software protocol.
# Results. Alpha Screen design and underlying principle. Alpha Screen technology relies on donor beads, coated with a hydrogel excitable by 680 nm, brought within close proximity to an acceptor bead leading to light emission and detection. In this assay, streptavidin coated donor beads tightly bind to biotinylated-poly(A) RNA while the glutathione-coated acceptor bead binds to GST-tagged MSUT2 protein. […] When this interaction is blocked by an inhibitor, the proximity threshold for donor and acceptor beads is not met, singlet oxygen transference cannot occur, and light is not emitted by the acceptor bead (FIG. 1a).
# Identification and validation of MSUT2 inhibitory compounds from NIHCC library. The single-point primary screen was conducted in duplicate and utilized the FP assay conditions determined herein (e.g., 125 nM MSUT2 RNABP and 10 nM FAM-RNA probe) with 10 μM library compounds added in a 96-well format. […] Compound specificity was empirically tested by counter screening against PABPN1, a regulator of the length of mRNA poly(A) tails (Apponi, L. H. et al. Hum Mol Genet 19, 1058-1065, (2010); and Benoit, B. et al. Dev Cell 9, 511-522, (2005)). IC50 of each of the previous 8 compounds was determined for PABPN1 using fluorescence polarization (FIG. 11), and a specificity ratio determined (Table 3). An Alpha Screen (AS) assay was developed as an orthogonal screen. Briefly, in this screen, biotinylated RNA binds streptavidin-coated donor beads, while GST-MSUT2 ZF binds glutathione-coated acceptor beads. […] Toxicity of these compounds in a HEK cell model was determined using a standard Promega Cell Titer Glo assay.
# Alpha Screen Assay. […] The plate was then incubated again at room temperature away from light for 60 minutes and subsequently read on a Perkin Elmer EnSight multimode microplate reader using a standard 96-well Alpha Assay protocol.
# [5] = target: T4, MSUT2; settings: read-out: Kd of MSUT2 for poly(A); cited from earlier work
# [6] = target: T5, PABPN1; test: Alpha Screen counter-screen; settings: tags: GST (pGEX-6P1); label: 5' biotin
# [7] = target: T6, MSUT2 ZF (ZC3H14 C-terminal CCCH zinc …); test: competition; FP competition, 10 nM FAM-RNA and 125 nM MSUT2 ZF, PBS; settings: tags: GST (pGEX-6P1)
# Description: as §1, §3
# [8] = target: T6, MSUT2 ZF (ZC3H14 C-terminal CCCH zinc …); test: FP; PBS, room temperature, 10 nM FAM-RNA; reported as affinity / binding constant; settings: tags: GST (pGEX-6P1); label: 5' FAM
# Description: as §1, §3
molecule,measurement,setting,value
CNCC[C@@H](Oc1ccccc1C)c1ccccc1 [Atomoxetine],Ki (nm) for MSUT2,[1],failed dose
O=C(O)C1=CC(=C(c2ccc(O)c(C(=O)O)c2)c2ccc(O)c(C(=O)O)c2)C=CC1=O [Aurin tricarboxylic acid],toxicity (effect on cell viability),"[2]; HEK-293, 72 hours, indicated concentrations",relatively high toxicity at high concentrations
O=C(N[C@H](CO)[C@H](O)c1ccc([N+](=O)[O-])cc1)C(Cl)Cl [Chloramphenicol],Ki (nm) for MSUT2,[1],failed DR
CC(C(=O)O)c1ccc(-c2ccccc2)c(F)c1 (stereo not drawn) [Flurbiprofen],IC50,[3],6570 nM
CN1C2CCCC1CC(NC(=O)c1nn(C)c3ccccc13)C2 (stereo not drawn) [Granisetron],Ki,[1],534 nM
same,IC50,[1]; read-out: IC50MSUT2,541 nM
same,IC50PABPN1,[3],None
OCCOCCN1CCN(C(c2ccccc2)c2ccc(Cl)cc2)CC1 (stereo not drawn) [Hydroxyzine],Ki,[1],573 nM
same,IC50,[3],23700 nM
same,PABPN1/MSUT2 specificity ratio,[3],40.7931
CC(C)(C)NC(=O)[C@@H]1CN(Cc2cccnc2)CCN1C[C@@H](O)C[C@@H](Cc1ccccc1)C(=O)N[C@H]1c2ccccc2C[C@H]1O [Indinavir],Ki,[1],916 nM
same,IC50,[1]; read-out: IC50MSUT2,927 nM
same,IC50,[3],28900 nM
CCCCN1CCCC1CNC(=O)c1cc(C#N)c2ccccc2c1OC (stereo not drawn) [Nafadotride],Ki,[1],867 nM
same,IC50,[3],67700 nM
same,PABPN1/MSUT2 specificity ratio,[3],77.11
CC(C)(C)NC(=O)[C@@H]1C[C@@H]2CCCC[C@@H]2CN1C[C@@H](O)[C@H](Cc1ccccc1)NC(=O)[C@H](CC(N)=O)NC(=O)c1ccc2ccccc2n1 [Saquinavir],Ki,[1],188 nM
same,IC50PABPN1,[3],None
same,inhibition activity by Alpha Screen (AS),[4],dose-dependent inhibition activity
same,cell viability,"[2]; HEK, highest tested dose of 4004, normalized to 2% DMSO vehicle",65%
C[C@H]1CCC[C@H](O)CCCCCc2cc(O)cc(O)c2C(=O)O1 [Zeranol],Ki (nm) for MSUT2,[1],failed DR
"FAM-RNA: fluorescent FAM (fluorescein amidite)-labeled poly(A)15 RNA probe (SEQ ID NO: 3) (AAAAAAAAAAAAAAA; RNA, 5' {FAM}, backbone not given here)",Kd,"[1]; saturation assay, FAM-RNA constant at 10 nM, read-out: affinity for FAM-RNA:MSUT2 ZF interaction",810 nM
"poly(A): poly(A) RNA, natural ligand of MSUT2 (AAAAAAAAAAAAAAA; RNA, backbone not given here)",Kd,[5],60 ± 15 nM
"unlabeled poly(A)15 RNA: unlabeled poly(A) RNA 5′-AAAAAAAAAAAAAAA-3′ (SEQ ID NO: 2), positive control for inhibition (RNA, backbone not given here)",IC50,"[1]; 10 nM FAM-RNA:125 nM MSUT2 ZF, positive control, read-out: IC50 in FP competition assay",320 nM
AAAAAAAAAAAAAAA (ssRNA) [biotin-poly(A)15],binding result,[6],binds
AAAAAAAAAAAAAAA (ssRNA) [poly(A)15 unlabeled],IC50,[7],320 nM
AAAAAAAAAAAAAAA (ssRNA) [FAM-poly(A)15],Kd,[8],810 nM

# — US20210386709A1, “COMPOSITIONS AND METHODS FOR SUPPRESSING MSUT2” (United States Government As Represented By The Department …, priority 2020, published 2021)
